pIC50: −log10 of the molar value.
The compounds below were run against Pol Theta (1-894) (Homo sapiens (Human), UniProt O75417) (assay: Biochemical Pol Theta (1-894) ATPase IC50 assay (ADP-Glo, ssDNA substrate)). Conditions: ADP-Glo assay with ssDNA substrate, room temperature.
Chain of Pol Theta (1-894) (O75417 1-894): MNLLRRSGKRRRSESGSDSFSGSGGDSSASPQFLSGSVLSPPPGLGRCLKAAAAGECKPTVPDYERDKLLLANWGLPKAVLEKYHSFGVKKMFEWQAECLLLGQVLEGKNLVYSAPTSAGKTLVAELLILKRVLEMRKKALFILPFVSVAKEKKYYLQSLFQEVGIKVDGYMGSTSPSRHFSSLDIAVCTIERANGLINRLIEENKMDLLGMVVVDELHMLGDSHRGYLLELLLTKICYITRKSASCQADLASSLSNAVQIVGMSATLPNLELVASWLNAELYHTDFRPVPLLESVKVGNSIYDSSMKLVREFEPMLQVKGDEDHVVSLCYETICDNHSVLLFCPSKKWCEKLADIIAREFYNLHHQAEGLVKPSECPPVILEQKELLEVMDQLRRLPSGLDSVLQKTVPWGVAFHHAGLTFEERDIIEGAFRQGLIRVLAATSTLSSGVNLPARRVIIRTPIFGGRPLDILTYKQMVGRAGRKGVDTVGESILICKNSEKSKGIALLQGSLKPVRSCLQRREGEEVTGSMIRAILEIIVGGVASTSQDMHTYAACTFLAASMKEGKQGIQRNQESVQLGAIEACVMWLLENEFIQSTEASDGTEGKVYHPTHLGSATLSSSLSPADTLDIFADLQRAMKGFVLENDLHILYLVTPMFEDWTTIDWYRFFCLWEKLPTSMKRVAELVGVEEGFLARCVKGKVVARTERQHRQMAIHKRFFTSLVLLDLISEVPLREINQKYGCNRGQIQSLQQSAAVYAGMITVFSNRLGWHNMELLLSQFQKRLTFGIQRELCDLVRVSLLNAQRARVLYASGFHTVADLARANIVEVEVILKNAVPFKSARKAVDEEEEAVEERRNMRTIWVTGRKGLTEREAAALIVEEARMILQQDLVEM
Protocol: Baculovirus Expression of Human POL theta (1-894)
Human POL Theta (1-894)-His-pFastBac1 baculovirus samples were generated using the Bac-to-Bac baculovirus expression system (Invitrogen) according to the manufacturer's protocol. […] Baculovirus amplification was achieved using infected SF9 cells at 1:2000 virus/cells ratios, and grown for 96 hours at 27° C. post-transfection. The expression scaled up for each protein was carried out in the flask 3 L from CORNING. 4 L of 3×10^6 cells/mL Sf9 cells (Expression System, Invitrogen) grown in SF900TM II SFM insect medium (Expression System) were infected with virus stock at 1:200 virus/cell ratios, and grown for 48 hours at 27° C. post-transfection. The infected cell culture was harvested by centrifugation at 6000 rpm for 15 min 4° C. in a SORVALL LYNX6000 centrifuge. The cell pellets were stored at −80° C.
The human POL Theta (1-894)-His produced as described above, were purified from Sf9 baculovirus-infected insect cell paste. The cells were lysed using sonication method, and the lysates were clarified by centrifugation.
Enzymatic reactions of Pol Theta (1-894) were performed using ADP-Glo assay with ssDNA substrate. Pol Theta (1-894) was expressed in baculovirus expression system. The inhibition activities testing for the compound disclosed herein were carried out at room temperature in assay buffer containing 40 mM Tris pH 7.5, 20 mM MgCl2, 1 mM DTT, 0.01% BSA and 0.05% Tween-20. Compounds in DMSO were dispensed into wells of a black 384 well plate (Corning 4514) using D300e digital dispenser (Tecan). The ranges of compounds final concentration were 2.62 nM˜10000 nM. 3 μL 2× enzyme solution containing 12.5 nM enzyme was added to wells. […] After 1 hour reaction, 5 μL ADP-Glo reagent (Promga V9102) was added and incubated for 40 minutes. 10 μL Kinase Detection reagent was added and incubated for 40 minutes. Luminescence was measured on a microplate reader (PHERAstar FSX, BMG labtech). The IC50 values were calculated based on inhibition of enzyme activity in the presence of increasing concentrations of compounds.
Compound `COCCOc1ccc(-c2ccc3nc(NC(=O)c4cnc(C)cc4-c4cc(C#N)ccc4OC)sc3n2)cc1` [Example 123, 4-(5-cyano-2-methoxyphenyl)-N-(5-(4-(2-methoxyethoxy)phenyl)thiazolo[5,4-b]pyridin-2-yl)-6-methylnicotinamide] has a pIC50 of 7.57. With `COc1ccccc1-c1cnncc1C(=O)Nc1nc2ccc(-c3ccc(Cl)cc3F)nc2s1` [Example 100, N-(5-(4-chloro-2-fluorophenyl)thiazolo[5,4-b]pyridin-2-yl)-5-(2-methoxyphenyl)pyridazine-4-carboxamide] the pIC50 was 7.54. `COc1ccccc1-c1cnncc1C(=O)Nc1nc2ccc(Oc3ccc(C#N)cc3)nc2s1` [Example 152, N-(5-(4-cyanophenoxy)thiazolo[5,4-b]pyridin-2-yl)-5-(2-methoxyphenyl)pyridazine-4-carboxamide] showed a pIC50 of 7.68. Work on `COc1ccc(C#N)cc1-c1cc(C)ncc1C(=O)Nc1nc2ccc(-c3ccc(C(C)(C)O)cc3)nc2s1` [Example 80, 4-(5-cyano-2-methoxyphenyl)-N-(5-(4-(2-hydroxypropan-2-yl)phenyl)thiazolo[5,4-b]pyridin-2-yl)-6-methylnicotinamide] yielded a pIC50 of 7.59. `COc1cccc(Cl)c1-c1cc(C)ncc1C(=O)Nc1nc2ccc(-c3ccc(C#N)cc3)nc2s1` [Example 146, 4-(2-chloro-6-methoxyphenyl)-N-(5-(4-cyanophenyl)thiazolo[5,4-b]pyridin-2-yl)-6-methylnicotinamide] was tested, and the pIC50 was 7.66. In the case of `COc1ccc(C#N)cc1-c1cc(C)ncc1C(=O)Nc1nc2ccc(-c3ccc(OC4CNC4)cc3)nc2s1` [Example 170, N-(5-(4-(azetidin-3-yloxy)phenyl)thiazolo[5,4-b]pyridin-2-yl)-4-(5-cyano-2-methoxyphenyl)-6-methylnicotinamide], the pIC50 was 7.59. For `COc1ccccc1-c1cnncc1C(=O)Nc1nc2ccc(-c3ccc(S(C)(=O)=O)cc3)nc2s1` [Example 81, 5-(2-methoxyphenyl)-N-(5-(4-(methylsulfonyl)phenyl)thiazolo[5,4-b]pyridin-2-yl)pyridazine-4-carboxamide], the pIC50 was 8.11. With `COc1ccc(C#N)cc1-c1cc(C)ncc1C(=O)Nc1nc2ccc(-c3ccc(C(=O)N4CCC4)cc3)nc2s1` [Example 145, N-(5-(4-(azetidine-1-carbonyl)phenyl)thiazolo[5,4-b]pyridin-2-yl)-4-(5-cyano-2-methoxyphenyl)-6-methylnicotinamide] the pIC50 was 7.66. For `COc1ccc(C2CC2)cc1-c1cc(C)ncc1C(=O)Nc1nc2ccc(-c3ccc(C#N)cc3)nc2s1` [Example 57, N-(5-(4-cyanophenyl)thiazolo[5,4-b]pyridin-2-yl)-4-(5-cyclopropyl-2-methoxyphenyl)-6-methylnicotinamide], the pIC50 was 7.24. `COc1ccccc1-c1cnncc1C(=O)Nc1nc2ccc(OCC3CCCO3)nc2s1` (stereo not drawn) [Example 118, 5-(2-methoxyphenyl)-N-(5-((tetrahydrofuran-2-yl)methoxy)thiazolo[5,4-b]pyridin-2-yl)pyridazine-4-carboxamide] was tested, and the pIC50 was 7.77. For `N#Cc1ccc(C(=O)Nc2nc3ccc(-c4ccc(Cl)cc4)nc3s2)c(N2CCNC(=O)C2)n1` [Example 13, N-(5-(4-chlorophenyl)thiazolo[5,4-b]pyridin-2-yl)-6-cyano-2-(3-oxopiperazin-1-yl)nicotinamide], the pIC50 was 6.83. `CCNC(=O)c1ccc2nc(NC(=O)c3cnncc3-c3ccccc3OC)sc2n1` [Example 94, N-ethyl-2-(5-(2-methoxyphenyl)pyridazine-4-carboxamido)thiazolo[5,4-b]pyridine-5-carboxamide] gave a pIC50 of 7.54. Work on `COc1ccccc1-c1cnncc1C(=O)Nc1nc2ccc(OC3CCCC3)nc2s1` [Example 114, N-(5-(cyclopentyloxy)thiazolo[5,4-b]pyridin-2-yl)-5-(2-methoxyphenyl)pyridazine-4-carboxamide] yielded a pIC50 of 7.00. `COc1ccc(C#N)cc1-c1cc(C)ncc1C(=O)Nc1nc2ccc(-c3ccc(N4C(=O)COC4=O)c(C)c3)nc2s1` [Example 163, 4-(5-cyano-2-methoxyphenyl)-N-(5-(4-(2,4-dioxooxazolidin-3-yl)-3-methylphenyl)thiazolo[5,4-b]pyridin-2-yl)-6-methylnicotinamide] showed a pIC50 of 7.55. `COc1ccc(C#N)cc1-c1cc(C)ncc1C(=O)Nc1nc2ccc(-c3ccc(NC(=O)CO)cc3)nc2s1` [Example 42, 4-(5-cyano-2-methoxyphenyl)-N-(5-(4-(2-hydroxyacetamido)phenyl)thiazolo[5,4-b]pyridin-2-yl)-6-methylnicotinamide] gave a pIC50 of 7.19. `COc1ccccc1-c1cnncc1C(=O)Nc1nc2ccc(C(=O)NC3CCOCC3)nc2s1` [Example 113, 2-(5-(2-methoxyphenyl)pyridazine-4-carboxamido)-N-(tetrahydro-2H-pyran-4-yl)thiazolo[5,4-b]pyridine-5-carboxamide] showed a pIC50 of 6.78. `Cc1cc(-c2cc(C#N)c(=O)n(C)c2C)c(C(=O)Nc2nc3ccc(-c4ccc(C#N)cc4)nc3s2)cn1` [Example 173, 5-cyano-N-(5-(4-cyanophenyl)thiazolo[5,4-b]pyridin-2-yl)-1,2,6′-trimethyl-6-oxo-1,6-dihydro-[3,4′-bipyridine]-3′-carboxamide] gave a pIC50 of 7.59. Work on `COc1ccc(C#N)cc1-c1cc(CO)ncc1C(=O)Nc1nc2ccc(-c3ccc(C#N)cc3)nc2s1` [Example 109, 4-(5-cyano-2-methoxyphenyl)-N-(5-(4-cyanophenyl)thiazolo[5,4-b]pyridin-2-yl)-6-(hydroxymethyl)nicotinamide] yielded a pIC50 of 8.33. `COc1ccccc1-c1cnncc1C(=O)Nc1nc2ccc(C(=O)NCCO)nc2s1` [Example 112, N-(2-hydroxyethyl)-2-(5-(2-methoxyphenyl)pyridazine-4-carboxamido)thiazolo[5,4-b]pyridine-5-carboxamide] showed a pIC50 of 7.22. In the case of `COc1ccc(C#N)cc1-c1cc(C)ncc1C(=O)Nc1nc2ccc(N3CCOCC3)nc2s1` [Example 60, 4-(5-cyano-2-methoxyphenyl)-6-methyl-N-(5-morpholinothiazolo[5,4-b]pyridin-2-yl)nicotinamide], the pIC50 was 6.44. In the case of `COc1ccc(C#N)cc1-c1cc(C)ncc1C(=O)Nc1nc2ccc(-c3ccc(N4CCCC4=O)c(C)c3)nc2s1` [Example 78, 4-(5-cyano-2-methoxyphenyl)-6-methyl-N-(5-(3-methyl-4-(2-oxopyrrolidin-1-yl)phenyl)thiazolo[5,4-b]pyridin-2-yl)nicotinamide], the pIC50 was 8.12. In the case of `COc1ccccc1-c1cnncc1C(=O)Nc1nc2ccc(-c3ccc(NC(=O)C4CC4)cc3)nc2s1` [Example 71, N-(5-(4-(cyclopropanecarboxamido)phenyl)thiazolo[5,4-b]pyridin-2-yl)-5-(2-methoxyphenyl)pyridazine-4-carboxamide], the pIC50 was 7.08. With `COc1ccc(C#N)cc1-c1cc(C)ncc1C(=O)Nc1nc2ccc(-c3ccc(CC#N)cc3C)nc2s1` [Example 172, 4-(5-cyano-2-methoxyphenyl)-N-(5-(4-(cyanomethyl)-2-methylphenyl)thiazolo[5,4-b]pyridin-2-yl)-6-methylnicotinamide] the pIC50 was 8.00. Compound `COc1ccccc1-c1cnncc1C(=O)Nc1nc2ccc(CCc3ccc(Cl)cn3)nc2s1` [Example 162, N-(5-(2-(5-chloropyridin-2-yl)ethyl)thiazolo[5,4-b]pyridin-2-yl)-5-(2-methoxyphenyl)pyridazine-4-carboxamide] has a pIC50 of 7.54.

From patent US20250026766A1, “Thiazolopyridyl Amide Derivatives as DNA Polymerase Theta Inhibitors” (BeiGene, Ltd., priority 2022, published 2025)
